The target of experiment [1] is T1, Mu-type opioid receptor (Homo sapiens, UniProt P35372). The experiment is described as follows: Binding affinity to human mu opioid receptor expressed in CHO cells. Type of experiment: cell-based.
For experiment [2], the target named is T2, Kappa-type opioid receptor (Homo sapiens, UniProt P41145). The experiment is described as follows: Binding affinity to human kappa opioid receptor expressed in CHO cells. Format: cell-based.
Experiment [3] concerns the target T3, Delta-type opioid receptor (Homo sapiens, UniProt P41143). The experiment is described as follows: Binding affinity to human delta opioid receptor expressed in CHO cells. Format: cell-based.
The target in experiment [4] is T1, Mu-type opioid receptor. The experiment is described as follows: Antagonist activity at human mu opioid receptor expressed in CHO cells assessed as inhibition of DAMGO-stimulated [35S]GTPgammaS binding. Type of experiment: functional, cell-based. Background: GTPγS resists hydrolysis and so accumulates on activated G proteins.
The target in experiment [5] is T2, Kappa-type opioid receptor. The experiment can be described thus: Antagonist activity at human kappa opioid receptor expressed in CHO cells assessed as inhibition of U69,593-stimulated [35S]GTPgammaS binding. Format: functional, cell-based.
Experiment [6] concerns the target T3, Delta-type opioid receptor. The experiment can be described thus: Antagonist activity at human delta opioid receptor expressed in CHO cells assessed as inhibition of DPDPE-stimulated [35S]GTPgammaS binding. Type of experiment: functional, cell-based.

T2 sequence (P41145 whole entry): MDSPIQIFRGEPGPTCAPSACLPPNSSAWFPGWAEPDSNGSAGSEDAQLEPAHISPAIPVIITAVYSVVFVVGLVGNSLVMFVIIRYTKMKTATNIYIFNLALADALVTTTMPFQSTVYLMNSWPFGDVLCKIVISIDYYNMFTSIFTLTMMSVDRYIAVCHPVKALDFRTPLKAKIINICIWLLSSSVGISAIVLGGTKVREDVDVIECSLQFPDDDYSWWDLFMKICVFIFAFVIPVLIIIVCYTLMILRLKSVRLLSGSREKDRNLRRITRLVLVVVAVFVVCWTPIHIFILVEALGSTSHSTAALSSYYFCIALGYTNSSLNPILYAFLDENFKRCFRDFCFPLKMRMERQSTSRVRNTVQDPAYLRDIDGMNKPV
T1 sequence (P35372 whole entry): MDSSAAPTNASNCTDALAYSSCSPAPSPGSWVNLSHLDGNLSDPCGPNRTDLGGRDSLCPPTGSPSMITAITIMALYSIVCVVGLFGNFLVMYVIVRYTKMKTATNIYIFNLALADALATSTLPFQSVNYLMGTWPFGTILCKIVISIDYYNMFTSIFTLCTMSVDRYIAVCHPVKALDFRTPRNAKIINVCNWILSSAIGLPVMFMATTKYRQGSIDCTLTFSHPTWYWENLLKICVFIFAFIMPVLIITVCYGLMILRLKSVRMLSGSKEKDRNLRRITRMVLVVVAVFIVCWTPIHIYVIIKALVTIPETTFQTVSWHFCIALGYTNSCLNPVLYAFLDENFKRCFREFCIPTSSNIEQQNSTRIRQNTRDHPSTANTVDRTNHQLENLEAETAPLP
T3 sequence (P41143 whole entry): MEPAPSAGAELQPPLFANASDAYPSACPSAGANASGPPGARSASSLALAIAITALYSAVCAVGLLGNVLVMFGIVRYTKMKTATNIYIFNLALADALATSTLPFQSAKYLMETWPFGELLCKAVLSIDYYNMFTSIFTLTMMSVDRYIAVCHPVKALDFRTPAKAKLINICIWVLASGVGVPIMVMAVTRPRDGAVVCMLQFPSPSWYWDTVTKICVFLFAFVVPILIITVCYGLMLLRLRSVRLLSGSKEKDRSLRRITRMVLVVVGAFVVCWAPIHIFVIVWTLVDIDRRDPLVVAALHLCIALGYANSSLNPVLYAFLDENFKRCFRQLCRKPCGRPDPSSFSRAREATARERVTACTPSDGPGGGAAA

Regarding `C[C@H]1CN(CC[C@H](O)C2CCCCC2)CC[C@@]1(C)c1ccccc1`, the results for the inhibition constant (Ki) (at Mu-type opioid receptor [1]; in experiment [2]; in experiment [3]) were 0.0077 µM, 0.749 µM and 0.169 µM, respectively. The Kb stood at 0.0016 µM on Mu-type opioid receptor [4], 0.0406 µM in experiment [5] and 0.0471 µM in experiment [6].

A word on the Ki: it is a measure of affinity in units of concentration, obtained from inhibition or displacement. A lower Ki goes with tighter binding. One may read the Kb as the equilibrium dissociation constant of an antagonist, usually derived from a functional assay.

(Values after ChEMBL document CHEMBL3352410 (J Med Chem, 2014).)
